Laboratory results taken from patent publication US20100092456A1, “METHODS OF TREATMENT” (priority 2006, published 2010).
One block for each compound: values may come before it. No end group written: not given here.

Columns and labels:
ING2 = assay: Western blot of endogenous ING2 associated with the CEF of MEL cells; type: cell-based, Murine; settings: MEL cells; 200 J/m UV; NAC 5 mM 4 hours, wortmannin 200 nM and 5 μM, curcumin 100 μM
Protocol: FIG. 4. A) Exponentially growing MEL cells were irradiated with either 200 J/m of UV light or 10 Gy of gamma radiation. After 30 minutes the CEF was isolated and the subjected to SDS-PAGE followed by transfer of the separated proteins to a nitrocellulose membrane. Western blotting for endogenous ING2 and histone 4 proteins was performed. Representative western blots are shown. B) Exponentially growing MEL cells were incubated in the absence or presence of N-acetyl cysteine (NAC) (5 mM) for 4 hours prior to a control irradiation or exposed to 200 J/m of UV light before the isolation of the CEF. Differentiated MEL cells were incubated in the absence or presence of H2O2 (500 μM) for 15 minutes prior to the isolation of the CEF. Proteins in the CEF were subjected to SDS-PAGE followed by transfer to a nitrocellulose membrane. Western blotting for endogenous ING2 and histone 4 proteins was performed. Representative western blots are shown. C) MEL cells were preincubated with either vehicle, wortmannin (200 nM and 5 μM) or curcumin (100 μM) were irradiated with 200 J/m of UV light. After 30 minutes the CEF was isolated and proteins were subjected to SDS-PAGE followed by transfer to a nitrocellulose membrane. Western blotting for endogenous ING2 and histone 4 proteins was performed. Representative western blots are shown. D) The CEF from transiently transfected MEL cells with either pSuper or pSuper-IIβRNAi was prepared. Proteins in the CEF were subjected to SDS-PAGE followed by transfer to a nitrocellulose membrane. […] Proteins were analysed by standard western blotting procedures employing the following antibodies: anti-tubulin and anti-flag (both from Sigma), anti-actin (Chemicon International), anti-histone 4 (Upstate Biotechnology), anti-phospho p54, anti-phospho p46, anti-phospho p38, total p54, total p46 and total p38 (all from Cell Signalling Technology) anti-ING2, anti EGFP (Clontech), anti-type II β PIP kinase, anti-GST and anti-myc (both generated in house).

[1] = test system: nuclear PtdIns4P and PtdIns5P in differentiated MEL cells; assay: Mass assay of nuclear PtdIns4P and PtdIns5P in differentiated MEL cells; type: cell-based, Murine; settings: NAC 5 mM or BSO 100 μM for 4 hours, H2O2 500 μM for 15 minutes, vs control-treated cells
Protocol: B) Differentiated MEL cells were treated with NAC (5 mM) or BSO (100 μM), each for 4 hours, or H2O2 (500 μM) for 15 minutes prior to the isolation of intact nuclei. A mass assay was used to determine the levels of PtdIns4P and PtdIns5P. The results are expressed as % of control-treated differentiated MEL cells and are calculated from 3 independent experiments.
MEL, HEK 293 and HT1080 cells were maintained in routine culture using 10% FCS in DMEM. When required, differentiated MEL cells were prepared by the addition of 1.5% DMSO to the culture medium for a period of 4 days. MEL cells were transfected using Effectene (Qiagen), HEK 293 cells with calcium phosphate and HT1080 with LT1 (Mirus corporation). The following plasmids were used: pEGFP, pCDNA3 (both from Clontech), pCDNA3-Flag-MKK6+ and pCDNA3-Flag-MKK6-(from Dr. M. Schmidt, The Netherlands Cancer Institute), pSuper (from Dr. R. Agami, The Netherlands Cancer Institute), pCDNA3-EGFP-IpgD/IpgE, pCDNA3-EGFP-PIP kinase typeIIβ, and RNAi for type II β PIP kinase (termed pSuper-IIβRNAi). The targeting sequence for the latter was […]. Irradiation of the cells with 254 nm UV-C light (0-200 J/m) or gamma rays (0-40 Gy, from a Cesium 137 source) was performed using 6-well or 10 cm plastic petri dishes with a depth of medium covering the cells not exceeding 3-4 mm. Thereafter, the cells were returned to normal culture conditions for 30 minutes before subcellular fractionation was started. To determine long terms effects of UV and gamma irradiation the cells were returned to normal culture conditions for up to 48 hours.
MEL cells were washed, twice in ice cold PBS before their fractionation using a detergent-free hypotonic buffer. This method yields a mixed cytosol and membrane fraction and intact nuclei after separation using a sucrose cushion. MEL cell nuclei were fractionated into nucleoplasm and the CEF using modifications of a previously published method. Briefly, intact MEL cell nuclei were resuspended in ice cold hypotonic buffer (3 mM EDTA, 0.2 mM EGTA and 1 mM DTT pH 7.85, with protease inhibitors) followed by forced passage (12 times) through a 25 gauge needle. After centrifugation (1700 g) the supernatant (the nucleoplasm) was saved. The pellet (CEF) was washed twice before resuspending by sonication in 10 mM TrisHCl, 10% sucrose, 10 mM MgCl2 pH 7.4, with protease inhibitors. The protein content of all fractions was determined using the Bradford reagent (BioRad). PtdIns4P and PtdIns5P were measured using in vitro mass assays employing recombinant type I and type II PIP kinases, respectively. The product PtdIns(4,5)P2 was separated by TLC. The amount of radioactivity found in PtdIns(4,5)P2 was proportional to the amount of PtdInsP isomer in the neomycin affinity-purified lipid extract.
However, no studies have determined a role for nuclear phosphoinositides or defined downstream protein targets mediating phosphoinositide-stress activated pathways. To study changes in nuclear phosphoinositides in response to cellular stress, we used Murine erythroleukaemia (MEL) cells as a model system because preparations of nuclei from these cells have been proven to be of high purity. To visualise changes in phosphoinositides, various independent methods were used. The mass level of both PtdIns4P and PtdIns5P were measured using an assay that relies on the differential in vitro specificities of type I and type II PIP kinases. […] Gamma irradiation (10 Gy) led to a small (approximately 20%) decrease in the PtdIns4P level but no detectable change in the level of PtdIns5P in whole nuclei (FIG. 1a). To determine if nuclear PtdInsPs were regulated by oxidative stress we treated differentiated MEL cells with H2O2, BSO (L-buthionine[S,R]-sulphoximine, a glutamyl-cysteine synthetase inhibitor, which increases intracellular reactive oxygen species (ROS)) or NAC. (N-acetyl-cysteine, which increases cellular glutathione levels and cell' capability to deal with ROS). […]

type II β PIP kinase = assay: Type II PIP kinase activity in immunoprecipitates using PtdIns5P as substrate; type: cell-based
Protocol: FIG. 3. A) MEL cells were either untransfected or transfected to express myc-type II b PIP kinase. After 40 hours the cells some of the cells were irradiated with 200 J/m of UV light before reculturing for varying times indicated in the figure. The cells were collected and endogenous type II PIP kinase was immunoprecipitated from whole cell lysates using an anti-pan type II b PIP kinase antibody or an anti-myc antibody. Type II PIP kinase activity in the immunoprecipitates was determined using PtdIns5P as the substrate. The results are calculated from 3 independent experiments.
To test this hypothesis endogenous type II PIP kinases were immunoprecipitated from control-treated and UV-irradiated MEL cells and their activities were measured using PtdIns5P as a substrate. […] As the antibody used to immunoprecipitate recognises all type II PIP kinase isoforms, we transfected MEL cells with myc-tagged type II β PIP kinase and measured its activity in immunoprecipitates in response to UV irradiation. […] UV irradiation is known to regulate both stress-activated protein kinases (SAPKs) and mitogen-activated protein kinases (MAPKs) and therefore we determined if any of these UV induced pathways impinged on type II β PIP kinase activity. […] Therefore we assessed whether activation of the p38 pathway alone could mediate type II β PIP kinase inhibition. […]

MEL cells = assay: MEL cell viability and cell cycle profile; type: cell-based, Murine; settings: compound alone
Protocol: Ethanol fixed cells were incubated with prodium iodide (20 μg/ml) and RNAse (10 μg/ml) before cell cycle analysis by flow cytometry. Proteins were analysed by standard western blotting procedures employing the following antibodies: anti-tubulin and anti-flag (both from Sigma), anti-actin (Chemicon International), anti-histone 4 (Upstate Biotechnology), anti-phospho p54, anti-phospho p46, anti-phospho p38, total p54, total p46 and total p38 (all from Cell Signalling Technology) anti-ING2, anti EGFP (Clontech), anti-type II β PIP kinase, anti-GST and anti-myc (both generated in house).
To investigate the sub-nuclear localisation of UV-induced nuclear PtdInsPs, we fractionated nuclei to generate nucleoplasm (containing nuclear membranes and soluble nuclear material) and the chromatin enriched fraction (CEF) (FIG. 1c inset). […] Thus, the PtdInsP pool present in the CEF is a target for regulation in response to cellular stress.

[2] = molecular target: T1, PtdIns(4,5)P—F PH domain complex (Homo sapiens, UniProt P51178); assay: Displacement of PtdIns(4,5)P—F from the PH domain complex by unlabelled lipids; type: binding
T1 construct: GST-tagged PLCδ1 Pleckstrin homology (PH) domain protein expressed and purified in-house in E. Coli; made in house; host or cells: E. coli
T1 sequence (P51178 21-130 limits assumed): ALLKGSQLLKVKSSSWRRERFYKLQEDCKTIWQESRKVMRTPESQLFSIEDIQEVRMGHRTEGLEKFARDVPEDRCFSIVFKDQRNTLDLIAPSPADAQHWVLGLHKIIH
Protocol: FIG. 7. A 10 nM-1 uM PtdIns(4,5)P—F PH domain complex was incubated with increasing concentrations of unlabelled PtdIns(4,5) P2 (circles) and unlabelled PtdIns5P (squares). The unlabelled product disrupts the complex fully at 1 mM, substrate has no effect at 16 mM, (duplicates).
FIG. 20: A PtdIns(4,5)P—F PH domain complex (10 nM/500 nM) was incubated with increasing concentrations of unlabelled PtdIns(4,5) P2 (triangles) and unlabelled PtdIns4P (diamonds). The unlabelled product disrupts the complex fully at 750 nM, substrate has no effect at 5 μM.

[3] = test system: PtdIns(4,5)P2 in HeLa cells; assay: PtdIns(4,5)P2 levels visualised with GFP-PH domain of PLCdelta1 probe in HeLa cells; type: cell-based; settings: transient, levels quickly recover
Excerpt: Changes in intracellular PtdIns(4,5)P2 levels following stimulation with neurokinin A were visualised in real time using a fusion protein of GFP and the PH domain of PLCdelta1 as a probe. GFP PLC delta 1 is a highly specific in vivo probe for PIP2 in cells.
HeLa cells were transiently transfected with an expression plasmid encoding a fusion protein of GFP and the PH domain of PLCdelta1.
HeLa cells were transiently transfected with an expression plasmid encoding a fusion protein of GFP and the pleckstrin homology domain of PLCdelta1. GFP PLC delta1 is a highly specific in vivo probe for PtdIns(4,5)P2 in cells. Results are in FIG. 10.

Compound: CC(=O)N[C@@H](CS)C(=O)O [NAC, N-acetyl-cysteine]
UV-induced translocation of endogenous ING2 to the CEF (ING2): did not block
level of nuclear PtdIns4P [1]: lowered
level of nuclear PtdIns5P [1]: lowered

Compound: C[S+]([O-])c1ccc(-c2nc(-c3ccncc3)c(-c3ccc(F)cc3)[nH]2)cc1 (centres unmarked) [SB 203580]
UV light-induced inhibition of type II β PIP kinase activity (type II β PIP kinase; pre-treatment of MEL cells): blocked

Compound: COC[C@H]1OC(=O)c2coc3c2[C@@]1(C)C1=C(C3=O)[C@@H]2CCC(=O)[C@@]2(C)C[C@H]1OC(C)=O [wortmannin]
effect on the cell cycle profile (MEL cells; MEL cells): no effect
effect on MEL cell viability (MEL cells): no effect

effect on the complex ([2]; at 5 μM, PtdIns(4,5)P—F PH domain complex (10 nM/500 nM) (FIG. 20)): no effect
Compound: D-myo-Phosphatidylinositol 4-phosphate [PtdIns4P]

concentration at which unlabelled lipid disrupts the complex fully ([2]; 10 nM-1 uM PtdIns(4,5)P—F PH domain complex, duplicates (FIG. 7)): 1 mM
concentration at which unlabelled lipid disrupts the complex fully ([2]; PtdIns(4,5)P—F PH domain complex (10 nM/500 nM) (FIG. 20)): 0.00075 mM
Compound: phosphatidylinositol 4,5-bisphosphate [PtdIns(4,5) P2]

effect on the complex ([2]; 10 nM-1 uM PtdIns(4,5)P—F PH domain complex (FIG. 7)): no effect
Compound: PtdIns5P

Compound: CCCCS(=N)(=O)CCC(N)C(=O)O [BSO, L-buthionine[S,R]-sulphoximine]
level of nuclear PtdIns4P [1]: increased
level of nuclear PtdIns5P [1]: increased

Compound: neurokinin A (HKTDSFVGLM; ends and bridges not checked; UniProt P20366 98-107, looked up) [growth factor used to stimulate PtdIns(4,5)P2 depletion]
PtdIns(4,5)P2 levels (GFP-PH probe at plasma membrane) after growth factor stimulation [3]: depletion

Compound: COc1ccc(C[C@H]2NC[C@H](O)[C@H]2OC(C)=O)cc1 [anisomycin]
inhibition of type II β PIP kinase activity (type II β PIP kinase; treatment of cells): approximately 50%
